Measured values reported in ChEMBL document CHEMBL3885881, “DrugMatrix”.

Species on record: Rattus norvegicus
Experiment: DrugMatrix - Regimen: Daily Repeat
Type: toxicity, organism-based, Sprague-Dawley
Set-up: regimen Daily Repeat, gender Male, age 6-8 weeks
Details: in vivo, po, route oral GAVAGE, vehicle .5 % CMC; for ABSOLUTE BASOPHIL / ABSOLUTE EOSINOPHIL / ABSOLUTE LYMPHOCYTE / ABSOLUTE MONOCYTE / ABSOLUTE SEGMENTED NEUTROPHIL / BASOPHIL / EOSINOPHIL / ERYTHROCYTE COUNT / HEMATOCRIT / HEMOGLOBIN / LEUKOCYTE COUNT / LYMPHOCYTE / MEAN CORPUSCULAR HEMOGLOBIN / MEAN CORPUSCULAR HEMOGLOBIN CONCENTRATION / MEAN CORPUSCULAR VOLUME / MONOCYTE / NEUTROPHIL / NUCLEATED RED BLOOD CELLS / PLATELET COUNT: tissue Blood; for ALANINE AMINOTRANSFERASE / ALBUMIN / ALKALINE PHOSPHATASE / ASPARTATE AMINOTRANSFERASE / BLOOD UREA NITROGEN / CARBON DIOXIDE / CHLORIDE / CHOLESTEROL / CREATINE PHOSPHOKINASE / CREATININE / GLUCOSE / LACTATE DEHYDROGENASE / LIPASE / PHOSPHORUS / POTASSIUM / SODIUM / TOTAL BILIRUBIN / TOTAL PROTEIN / URIC ACID: tissue Plasma
[1] = 0 mg/kg, 72 h, dose level Control, time 3 day
[2] = 0 mg/kg, 120 h, dose level Control, time 5 day
[3] = 580 mg/kg, 72 h, dose level High, time 3 day

CN1C(=O)COc2c(C(=O)NC3CN4CCC3CC4)cc(Cl)cc21 (centres undefined) [AZASETRON]
ABSOLUTE BASOPHIL [1]: 0 CELLS/uL | ABSOLUTE EOSINOPHIL [1]: 47.67 CELLS/uL | ABSOLUTE LYMPHOCYTE [1]: 15937.67 CELLS/uL | ABSOLUTE MONOCYTE [1]: 138.33 CELLS/uL | ABSOLUTE SEGMENTED NEUTROPHIL [1]: 1443 CELLS/uL | BASOPHIL [1]: 0% | EOSINOPHIL [1]: 0.33% | ERYTHROCYTE COUNT [1]: 5.45 x10E6/uL | HEMATOCRIT [1]: 34.43% | HEMOGLOBIN [1]: 13.38 G/DL | LEUKOCYTE COUNT [1]: 17.57 x10E3/uL | LYMPHOCYTE [1]: 90.33% | MEAN CORPUSCULAR HEMOGLOBIN [1]: 24.6 pg | MEAN CORPUSCULAR HEMOGLOBIN CONCENTRATION [1]: 38.88 G/DL | MEAN CORPUSCULAR VOLUME [1]: 63.27 fL | MONOCYTE [1]: 0.83% | NEUTROPHIL [1]: 8.5% | NUCLEATED RED BLOOD CELLS [1]: 0 /100WBC | PLATELET COUNT [1]: 1298 x10E3/uL | ALANINE AMINOTRANSFERASE [1]: 47.67 u/L | ALBUMIN [1]: 4.18 G/DL | ALKALINE PHOSPHATASE [1]: 398.5 u/L | ASPARTATE AMINOTRANSFERASE [1]: 93.17 u/L | BLOOD UREA NITROGEN [1]: 16 mg/dL | CARBON DIOXIDE [1]: 29.17 mmol/L | CHLORIDE [1]: 98.17 MEQ/L | CHOLESTEROL [1]: 68.83 mg/dL | CREATINE PHOSPHOKINASE [1]: 467.33 u/L | CREATININE [1]: 0.14 mg/dL | GLUCOSE [1]: 151.67 mg/dL | LACTATE DEHYDROGENASE [1]: 597.5 u/L | LIPASE [1]: 9.33 u/L | PHOSPHORUS [1]: 11.97 mg/dL | POTASSIUM [1]: 6.43 MEQ/L | SODIUM [1]: 140.68 MEQ/L | TOTAL BILIRUBIN [1]: 0.18 mg/dL | TOTAL PROTEIN [1]: 5.82 G/DL | URIC ACID [1]: 1.48 mg/dL | ABSOLUTE BASOPHIL [2]: 0 CELLS/uL | ABSOLUTE EOSINOPHIL [2]: 31 CELLS/uL | ABSOLUTE LYMPHOCYTE [2]: 14327.83 CELLS/uL | ABSOLUTE MONOCYTE [2]: 102.83 CELLS/uL | ABSOLUTE SEGMENTED NEUTROPHIL [2]: 1321.67 CELLS/uL | BASOPHIL [2]: 0% | EOSINOPHIL [2]: 0.17% | ERYTHROCYTE COUNT [2]: 5.79 x10E6/uL | HEMATOCRIT [2]: 36.1% | HEMOGLOBIN [2]: 14.15 G/DL | LEUKOCYTE COUNT [2]: 15.78 x10E3/uL | LYMPHOCYTE [2]: 90.5% | MEAN CORPUSCULAR HEMOGLOBIN [2]: 24.48 pg | MEAN CORPUSCULAR HEMOGLOBIN CONCENTRATION [2]: 39.22 G/DL | MEAN CORPUSCULAR VOLUME [2]: 62.4 fL | MONOCYTE [2]: 0.67% | NEUTROPHIL [2]: 8.67% | NUCLEATED RED BLOOD CELLS [2]: 0.17 /100WBC | PLATELET COUNT [2]: 1211.67 x10E3/uL | ALANINE AMINOTRANSFERASE [2]: 49 u/L | ALBUMIN [2]: 4.27 G/DL | ALKALINE PHOSPHATASE [2]: 356.67 u/L | ASPARTATE AMINOTRANSFERASE [2]: 90.17 u/L | BLOOD UREA NITROGEN [2]: 20.5 mg/dL | CARBON DIOXIDE [2]: 29.17 mmol/L | CHLORIDE [2]: 98 MEQ/L | CHOLESTEROL [2]: 69.83 mg/dL | CREATINE PHOSPHOKINASE [2]: 312 u/L | CREATININE [2]: 0.21 mg/dL | GLUCOSE [2]: 149.83 mg/dL | LACTATE DEHYDROGENASE [2]: 322 u/L | LIPASE [2]: 10 u/L | PHOSPHORUS [2]: 12 mg/dL | POTASSIUM [2]: 6.75 MEQ/L | SODIUM [2]: 142.8 MEQ/L | TOTAL BILIRUBIN [2]: 0.17 mg/dL | TOTAL PROTEIN [2]: 6.1 G/DL | URIC ACID [2]: 1.68 mg/dL | ABSOLUTE BASOPHIL [3]: 0 CELLS/uL | ABSOLUTE EOSINOPHIL [3]: 0 CELLS/uL | ABSOLUTE LYMPHOCYTE [3]: 13751.33 CELLS/uL | ABSOLUTE MONOCYTE [3]: 160.33 CELLS/uL | ABSOLUTE SEGMENTED NEUTROPHIL [3]: 1088.33 CELLS/uL | BASOPHIL [3]: 0% | EOSINOPHIL [3]: 0% | ERYTHROCYTE COUNT [3]: 6.01 x10E6/uL | HEMATOCRIT [3]: 37.33% | HEMOGLOBIN [3]: 14.57 G/DL | LEUKOCYTE COUNT [3]: 15 x10E3/uL | LYMPHOCYTE [3]: 91.67% | MEAN CORPUSCULAR HEMOGLOBIN [3]: 24.27 pg | MEAN CORPUSCULAR HEMOGLOBIN CONCENTRATION [3]: 39.03 G/DL | MEAN CORPUSCULAR VOLUME [3]: 62.13 fL | MONOCYTE [3]: 1% | NEUTROPHIL [3]: 7.33% | NUCLEATED RED BLOOD CELLS [3]: 0 /100WBC | PLATELET COUNT [3]: 1244 x10E3/uL | ALANINE AMINOTRANSFERASE [3]: 64.33 u/L | ALBUMIN [3]: 4.27 G/DL | ALKALINE PHOSPHATASE [3]: 372.33 u/L | ASPARTATE AMINOTRANSFERASE [3]: 96.67 u/L | BLOOD UREA NITROGEN [3]: 17.33 mg/dL | CARBON DIOXIDE [3]: 26.67 mmol/L | CHLORIDE [3]: 99.33 MEQ/L | CHOLESTEROL [3]: 72.67 mg/dL | CREATINE PHOSPHOKINASE [3]: 527.67 u/L | CREATININE [3]: 0.25 mg/dL | GLUCOSE [3]: 150 mg/dL | LACTATE DEHYDROGENASE [3]: 877 u/L | LIPASE [3]: 9.67 u/L | PHOSPHORUS [3]: 11.3 mg/dL | POTASSIUM [3]: 6.57 MEQ/L | SODIUM [3]: 141.63 MEQ/L | TOTAL BILIRUBIN [3]: 0.23 mg/dL | TOTAL PROTEIN [3]: 6 G/DL | URIC ACID [3]: 1.73 mg/dL
